These results are taken from patent publication US10555926B2, “Use of cabazitaxel in the treatment of prostate cancer” (Erasmus University Medical Center Rotterdam, priority 2015, dated 2020).

Assay [1] has as its system mCRPC patients. As to conditions: cited from earlier work.
The subject of the next assay is CTCs of mCRPC patients. Briefly: CTC response to cabazitaxel after two cycles (CABARESC side-study). Particulars: for CTC response: No (number of patients): 25 mg/m^2; for CTC response: Yes (number of patients): decrease from ≥10 to <5 CTCs/7.5 mL. The assay is classed as in vivo, human. The method, then:
Blood was drawn by venipuncture before start of the first and the third cycle of cabazitaxel. Enumeration of CTCs was carried out as described in detail before (Sieuwerts et al., 2009. Breast Cancer Res Treat 118:455-68; Sieuwerts et al., 2011. Clin Cancer Res 17:3600-18). Briefly, CTCs were enumerated from 7.5 mL of blood drawn into a CellSave Preservative tube (Janssen Diagnostics). Blood samples were processed within 96 hours using the Epithelial Cell Kit on the CellSearch System (both Janssen Diagnostics). In this system, epithelial cells are immunomagnetically enriched from whole blood using anti-EpCAM antibodies loaded with ferrofluid nanoparticles. Enriched cells are stained with the nuclear dye 4′,6-diamidino-2-phenylindole (DAPI), anti-cytokeratin 8/18/19 labeled with phycoerythrin (PE), and anti-CD45 labeled with allophycocyanin (APC), followed by scanning using the CellTracks Analyzer (Janssen Diagnostics). All cells ≥4 μm, with round-to-oval morphology, positive for cytokeratin and DAPI, with at least 50% overlap in the DAPI and cytokeratin signal, and negative for CD45 were considered CTCs. All samples were analyzed by two independent, trained reviewers.
From 25 patients a secondary CTC sample was available; in three patients the second draw was missed and one patient died after the second cycle because of a non-disease related event. Of these 25 patients, 15 were AR-V7-positive and 10 were AR-V7-negative. […] The CTC-RRs in both AR-V7-positive and AR-V7-negative patient groups were 20% (Table 4).

The subject of assay [2] is mCRPC patients. Briefly: PSA response to cabazitaxel (after 12 weeks and best response at end of treatment). The class given is in vivo, human. As to conditions: for Best PSA response: No (number of patients) / Best PSA response: ≥50% (number of patients) / Best PSA response: ≥30% (number of patients): end of treatment; for Best PSA response: ≥30% (number of patients) / PSA response after 12 weeks: ≥30% (number of patients): includes patients with ≥50% PSA response. The source says:
Sequential PSA levels during cabazitaxel for evaluation of PSA response after 12 weeks and maximal PSA response at the end of treatment were available from […]. Five (17%) and three patients (10%) achieved a ≥30% and ≥50% PSA response, respectively, after 12 weeks of treatment. At the end of treatment, the best PSA response was ≥30% in seven patients (24%) and ≥50% in three patients (10%). The differences between 30% and 50% PSA-RR after 12 weeks and at the end of treatment between patients with and without AR-V7 in CTCs were not statistically significant (Table 4, FIG. 2). Prior abiraterone acetate treatment had no influence on CTC-RR and PSA-RR during cabazitaxel treatment.

Assay [3] deals with mCRPC patients. Put plainly: Overall survival under cabazitaxel treatment.
Protocol: Primary endpoint of this study was the CTC response rate (RR) to cabazitaxel, defined as a decrease from ≥10 CTC to <5/7.5 ml of blood after two treatment cycles.
Applied statistical tests were the X^2 test for differences between categorical variables, the Student's t test for normally distributed and the Mann-Whitney U test for other continuous variables. Correlations were tested by Pearson or the non-parametric Spearman's test, depending on the distribution. Survival was visualized using Kaplan Meier plots and differences were calculated through Log-rank testing. All statistical tests were two-sided. A P-value <0.05 was considered statistically significant.
For assay [4], the system named is castration resistant prostate cancer (CRPC) patients. Particulars: in combination with prednisone; first-line chemotherapy; cited from earlier work.
Where [5] appears, read: patients with AR-V7 transcripts in their CTCs.
Where [6] appears, read: all patients, after 12 weeks of treatment.
[7] abbreviates: all patients, at the end of treatment.

Like-named read-outs stand apart in the source and are kept apart here.

For the compound `CC(=O)O[C@H]1CC[C@@]2(C)C(=CC[C@@H]3[C@@H]2CC[C@]2(C)C(c4cccnc4)=CC[C@@H]32)C1` [abiraterone acetate], the patients who responded result was “none” in the assay on mCRPC patients [1] (setting [5]) and 68% in the assay on mCRPC patients [1] (patients without AR-V7).

As for `CNC(=O)c1ccc(N2C(=S)N(c3ccc(C#N)c(C(F)(F)F)c3)C(=O)C2(C)C)cc1F` [enzalutamide], the values for the patients who responded result with mCRPC patients [1] (setting [5]) and in the assay with mCRPC patients [1] (patients without AR-V7) were “none” and 53%, respectively.

`CO[C@H]1C(=O)[C@]2(C)[C@@H](OC)C[C@H]3OC[C@@]3(OC(C)=O)[C@H]2[C@H](OC(=O)c2ccccc2)[C@]2(O)C[C@H](OC(=O)[C@H](O)[C@@H](NC(=O)OC(C)(C)C)c3ccccc3)C(C)=C1C2(C)C` [cabazitaxel, 4a-acetoxy-2a-benzoyloxy-5,20-epoxy-1-hydroxy-7,10-dimethoxy-9-oxo-1 1-taxen-13a-yl (2R,3S)-3-fert-butoxycarbonylamino-2-hydroxy-3-phenylpropionate] came in with a CTC-RR in the assay with CTCs of mCRPC patients (AR-V7-negative patient group) of 20%. Moreover, the CTC-RR in the assay with CTCs of mCRPC patients (AR-V7-positive patient group) was determined as 20%. Moreover, in the assay with CTCs of mCRPC patients (AR-V7 in CTCs at baseline: No), the “CTC response: No (number of patients)” value is listed as 8 and the “CTC response: Yes (number of patients)” value turned out to be 2. Moreover, in the assay with CTCs of mCRPC patients (AR-V7 in CTCs at baseline: Yes), the “CTC response: No (number of patients)” value was determined as 12 and the “CTC response: Yes (number of patients)” value amounted to 3. Besides, the “CTC response to cabazitaxel (share of patients)” value with CTCs of mCRPC patients (all 25 patients with a second CTC sample) came out at 20%. In the assay on mCRPC patients [2] (AR-V7 in CTCs at baseline: No), the “PSA response after 12 weeks: No (number of patients)” value worked out at 9, the “PSA response after 12 weeks: ≥50% (number of patients)” value is listed as 2, the “Best PSA response: No (number of patients)” value amounted to 7 and the “Best PSA response: ≥50% (number of patients)” value came to 2. In the assay on mCRPC patients [2] (AR-V7 in CTCs at baseline: No), the “Best PSA response: ≥30% (number of patients)” value was found to be 4 and the “PSA response after 12 weeks: ≥30% (number of patients)” value is listed as 3. Moreover, in the assay on mCRPC patients [2] (AR-V7 in CTCs at baseline: Yes), the “PSA response after 12 weeks: No (number of patients)” value is given as 12, the “PSA response after 12 weeks: ≥50% (number of patients)” value is recorded as 1, the “Best PSA response: No (number of patients)” value stood at 12 and the “Best PSA response: ≥50% (number of patients)” value was 1. Also, in the assay with mCRPC patients [2] (AR-V7 in CTCs at baseline: Yes), the “Best PSA response: ≥30% (number of patients)” value is 3 and the “PSA response after 12 weeks: ≥30% (number of patients)” value turned out to be 2. In the assay with mCRPC patients [2] (setting [6]), the “≥30% PSA response (share of patients)” value was found to be 17% and the “≥50% PSA response (share of patients)” value was found to be 10%. Also, in the assay with mCRPC patients [2] (setting [7]), the “best PSA response ≥30% (share of patients)” value is listed as 24% and the “best PSA response ≥50% (share of patients)” value was found to be 10%. Further, the “Median OS” value in the assay on mCRPC patients [3] (all patients (28 available)) is reported as 9.5 (95% CI 5.8-13.2) months. For the same compound, in the assay on mCRPC patients [3] (patients with AR-V7 in CTCs at baseline), the “Median OS” value is on record as 9.5 (95% CI 4.5-14.5) months. Moreover, in the assay with mCRPC patients [3] (patients without AR-V7 in CTCs at baseline), the “Median OS” value is given as 7.7 (95% CI 3.3-12.1) months.

`CC(=O)O[C@@]12CO[C@@H]1C[C@H](O)[C@@]1(C)C(=O)[C@H](O)C3=C(C)[C@@H](OC(=O)[C@H](O)[C@@H](NC(=O)OC(C)(C)C)c4ccccc4)C[C@@](O)([C@@H](OC(=O)c4ccccc4)[C@H]21)C3(C)C` [docetaxel]: in assay [4], the survival benefit was 2.4 months.
